# Measurements taken from paper PMC5357639 (Frontiers in Chemistry, 2017).
# Where a SMILES comes first, the peptide text is derived from it. The star is where a group is joined. Orn(α-tetramethylguanidino) = CN(C)C(=N[C@@H](CCCN)C(=O)*)N(C)C
# Legend:
# 70S ribosomes = conditions: binding to 70S ribosomes; ref Krizsan et al., 2014; cited from earlier work
# Source text: Antimicrobial peptides (AMPs) are considered as promising alternatives to common antibiotics that threateningly lose their therapeutic potentials against multidrug-resistant pathogens (Fox, [2013]; Wang et al., [2015]). In contrast to approved therapeutic peptide hormones, antimicrobial peptides have to be administered at much higher doses, which may amplify general drawbacks of peptide therapeutics. For example, the diabetes peptide drugs exenatide and pramlintide are given at daily doses of 20 μg (Byetta®; ~0.5 μg/kg) and 120 μg (Symlin®; ~1.5 μg/kg; Heine et al., [2005]; Hay et al., [2015]) ...
# [1] = Organ distribution (blood, kidney, liver and brain homogenates, urine) after intraperitoneal administration; format: in vivo, NMRI mice; conditions: for Peptide level in brain homogenates (not detected, less than LOD) / Concentration in urine / Peptide level in brain (not detected, LOD converted to brain weight) / Recovered peptide amount in kidneys of treated animals / Recovery rate in blood relative to the injected peptide amount: mouse, in vivo, ip
# Source text: (§1) A protocol to quantify Api88, Api137, and their major metabolites was established analog to that of oncocin derivatives, reported recently (Schmidt et al., [2016]). Briefly, an Alliance® 2695 HPLC system was coupled online to an ESI-QqLIT-MS (4,000 QTRAP®) equipped with a TurboV™ ion-spray source and operated in positive ion MRM mode using the Analyst® 1.6 software. Separation was achieved on a Jupiter C18-column (internal diameter 1 mm, length 150 mm, particle size 5 μm, pore size 300 Å) at 55 °C using a linear 5-min gradient from 2.7 to 20.7% aqueous acetonitrile containing ammonium formate (26 mmol/L, pH 3.0). Further details about instrumentation, MRM optimization, and MS settings are provided as Supplementary Material (Tables S1–S4, Method M1).
# (§2) Female NMRI mice (8–9 weeks, 25–35 g) were injected intraperitoneally (10 mL/kg) with peptides dissolved in sterile PBS (Gibco® Life Technologies™, Darmstadt, Germany) at concentrations of 0.5 or 2 g/L corresponding to doses of 5 or 20 mg/kg body weight, respectively. After 10, 20, 30, 60, or 90 min animals (n = 7) were euthanized by carbon dioxide inhalation and terminal bleeding via cardiac puncture. Lithium-heparin plasma (n = 7) was prepared and stored at −80°C. Immediately after the final bleed, mice were perfused through the left ventricle with saline (0.9%, 50 mL, ~3 min) to remove blood from all organs controlled by discoloration of the liver. Organs were removed aseptically and directly frozen in liquid nitrogen. Spontaneously released urine was collected and frozen immediately at −80°C.
# (§3) Method M1: M ultiple reaction monitoring (MRM) transitions for apidaecin peptides Peptides (1 µ g/ m L ) were dissolved inaqueous acetonitrile (25% or 60% v/ v) containing either formate buffer (26 mmol/ L, pH 2.6, 3.0, 3.3 or 3.9 ) or formic acid (0.1% v/v ) and infused (flow rate 5 µ L/min, PHD 2600 s yringe pump) into the ES I-Q q L IT -MS (4000 QTRAP®) to optimize buffer composition and MRM. Transitions were selected from the tandem mass spectra (MS/MS) and confirmed on an ESI-QqTOF-MS (QSTAR® pulsar I) providing higher mass resolutions and mass accuracies than the QTRAP ®. The settings for declustering potential (DP), collision potential (CE), and collision cell exit potential (CXP) were optimized by ramping the respective pot entials using the compound optimization tool of the Anal yst® software.
# (§4) Method M2: Sample preparation
# (§5) Frozen organs (5 per group) wer e homogenized in sterile PBS (500 µ L) containing Protease Inhibitor Mix M (1% v/v; SERVA Electrophoresis GmbH, Heidelberg, German y) using an Ultra-Turr ax ® T25 basic (IKA-Werke, Staufen, German y, rotational speed 21,500 min-1) for 1 min. Homogenates were sonicated on ice (35% amplitude, mode: 5 s on; 5 s off for 1 min; Vibra-cell™ 75041, Thermo Fisher Scientific) to disrupt cells. After centrifugation (15 min, 21,460 x g, 4°C) the supernatants were stored at - 80°C.
# (§6) Aliquots of plasma (10 µL) or liver (10 µ L), kidney (50 µ L), and brain hom ogenates (100 µ L) were spiked with isotope -labeled Api88, Api137, Api1- 16, and Api1- 17 (2.5 µ g/ m L). The samples were diluted fourfold with aqueous phosphoric acid (3.4% v/v), loaded on an Oasis H LB 9 6 -well solid phase extraction (SPE) plate (5 mg sorbent, Waters ), washed with aqueous methanol (0.3 m L, 5% v/ v), eluted with methanol (0.3 m L), and dried in a vacuum centrifuge (30 °C; SpeedVac, Eppendorf ). The samples were dissolved prior analysis in aqueous acetonitrile (3% v/v) containing formic acid (0.1 % v/v).
# (§7) Stock solutions (1 g/L) of the peptides and their corresponding isotope-labelled internal standards were prepared and diluted in water. Calibration and validation mixtures (10 µL) of unlabeled (0.025, 0.1, 0.5 or 2.5 µg/m L) and isotope-labeled peptides ( 2.5 µ g/ m L ) w ere mix ed with plasma or organ homogenates (10 to 100 µL) obtained from untreated animals fo r […]
# (§8) Limits of detection (LOD) and quantification (LOQ) corresponded to the lowest peptide […]
# in vivo [2] = assay: in vivo; set-up: species or system NMRI mice; conditions: mouse, ip; for C0: c0 (initial concentration at time point 0 min)
# Source text: as §1, §2, §3, §4, §5, §6, §7, §8
# in vivo [3] = assay: in vivo; set-up: species or system CD-1 mice; conditions: iv; for level at 5 min: female, CD-1, mouse, 5 mg/kg; for Time within which peptide is cleared: mouse
# Source text: as §1
# Female CD-1 mice (20–23 g weight, 7 weeks) were injected intravenously (10 mL/kg) in the tail vein with peptides (0.5 g/L) dissolved in sterile saline (0.9%, w/v) corresponding to doses of 5 mg/kg body weight. Animals (n = 4 per time point and peptide) were euthanized 5, 10, 20, 40, and 60 min post-injection by carbon dioxide inhalation and exsanguination. For further details of sample preparation and recovery experiments see Supplementary Material (Methods M2, M3).
# as §3, §4
# Frozen organs (5 per group) wer e homogenized in sterile PBS (500 µ L) containing Protease Inhibitor Mix M (1% v/v; SERVA Electrophoresis GmbH, Heidelberg, German y) using an Ultra-Turr ax ® T25 basic (IKA-Werke, Staufen, German y, rotational speed 21,500 min-1) for 1 min. […]
# Limits of detection (LOD) and quantification (LOQ) corresponded to the lowest peptide concentrations in water, plasma, or homogenates of brain, liver , and kidney providing a peak height exceeding the noise in the retention time window at least threefol d (LOD) or ten times (LOQ). Recover y r ates o f SPE and matrix effects were determined b y the p eak areas of spiked
smiles,measurement,setting,value
CC[C@H](C)[C@H](NC(=O)[C@H](Cc1ccc(O)cc1)NC(=O)[C@@H](NC(=O)[C@@H]1CCCN1C(=O)[C@H](CCCNC(=N)N)NC(=O)[C@H](CC(N)=O)NC(=O)[C@H](CC(N)=O)NC(=O)[C@H](CCCN)N=C(N(C)C)N(C)C)C(C)C)C(=O)N1CCC[C@H]1C(=O)N[C@@H](CCCNC(=N)N)C(=O)N1CCC[C@H]1C(=O)N[C@@H](CCCNC(=N)N)C(=O)N1CCC[C@H]1C(=O)N1CCC[C@H]1C(=O)N[C@@H](Cc1c[nH]cn1)C(=O)N1CCC[C@H]1C(=O)N[C@@H](CCCNC(=N)N)C(=O)N[C@@H](CC(C)C)C(N)=O [Api88] ({Orn(α-tetramethylguanidino)}-NNRPVYIPRPRPPHPRL-NH2),Kd,70S ribosomes,1200 nM
same,"Peptide level in brain homogenates (not detected, less than LOD)","[1]; female, NMRI",< 43 ng/mL homogenate
same,Concentration in urine,"[1]; female, NMRI, 20 mg/kg",~ 0.2 μg/mL
same,"Peptide level in brain (not detected, LOD converted to brain weight)",[1],< 89 μg/g brain
same,Recovered peptide amount in kidneys of treated animals,[1],1.8 µg/g
same,Recovery rate in blood relative to the injected peptide amount,[1],below 1%
same,Concentration in urine,[1]; 5 mg/kg,below LOD
same,AUC(0-inf),"in vivo [2]; female, NMRI, 5 mg/kg",355 ng·h/mL
same,Cmax,"in vivo [2]; female, NMRI, 5 mg/kg",600 ng/mL
same,MRT,"in vivo [2]; female, NMRI, 5 mg/kg",30.5 min
same,clearance,"in vivo [2]; female, NMRI, 5 mg/kg",6.4 mL/min
same,half-life,"in vivo [2]; female, NMRI, 5 mg/kg",17.3 min
same,C0,"in vivo [2]; female, NMRI, 5 mg/kg",1000 ng/mL
same,AUC(0-inf),"in vivo [2]; female, NMRI, 20 mg/kg",1900 ng·h/mL
same,Cmax,"in vivo [2]; female, NMRI, 20 mg/kg",4100 ng/mL
same,MRT,"in vivo [2]; female, NMRI, 20 mg/kg",23.9 min
same,clearance,"in vivo [2]; female, NMRI, 20 mg/kg",5.4 mL/min
same,half-life,"in vivo [2]; female, NMRI, 20 mg/kg",11.1 min
same,Time within which peptide is cleared,in vivo [2],~ 90 min
same,AUMC0 → ∞,in vivo [2]; 5 mg/kg,650 μg^*min^2*mL^−^1
same,Detection in plasma,in vivo [2]; 5 mg/kg,undetectable
same,Volume of distribution,in vivo [2]; 5 mg/kg,137 mL
same,c0 (initial concentration at time point 0 min),in vivo [2]; 5 mg/kg,1 µg/mL
same,k (elimination constant),in vivo [2]; 5 mg/kg,0.040 min^−^1
same,AUMC0 → ∞,in vivo [2]; 20 mg/kg,2730 μg^*min^2*mL^−^1
same,Volume of distribution,in vivo [2]; 20 mg/kg,100 mL
same,c0 (initial concentration at time point 0 min),in vivo [2]; 20 mg/kg,6.2 µg/mL
same,k (elimination constant),in vivo [2]; 20 mg/kg,0.062 min^−^1
same,level at 5 min,in vivo [3],1000 ng/mL
same,Time within which peptide is cleared,in vivo [3],~ 60 min
CC[C@H](C)[C@H](NC(=O)[C@H](Cc1ccc(O)cc1)NC(=O)[C@@H](NC(=O)[C@@H]1CCCN1C(=O)[C@H](CCCNC(=N)N)NC(=O)[C@H](CC(N)=O)NC(=O)[C@H](CC(N)=O)NC(=O)[C@H](CCCN)N=C(N(C)C)N(C)C)C(C)C)C(=O)N1CCC[C@H]1C(=O)N[C@@H](CCCNC(=N)N)C(=O)N1CCC[C@H]1C(=O)N[C@@H](CCCNC(=N)N)C(=O)N1CCC[C@H]1C(=O)N1CCC[C@H]1C(=O)N[C@@H](Cc1c[nH]cn1)C(=O)N1CCC[C@H]1C(=O)N[C@@H](CCCNC(=N)N)C(=O)N[C@@H](CC(C)C)C(=O)O [Api137] ({Orn(α-tetramethylguanidino)}-NNRPVYIPRPRPPHPRL-OH),Kd,70S ribosomes,560 nM
same,Kidney concentration estimated from detected peptide amount,[1]; estimating the volume of both kidneys as 0.5 mL,4.8 µg/mL
same,"Peptide level in brain homogenates (not detected, less than LOD)","[1]; female, NMRI",< 18 ng/mL homogenate
same,"Peptide level in brain (not detected, LOD converted to brain weight)",[1],< 37 μg/g brain
same,Recovered peptide amount in kidneys of treated animals,[1],2.4 µg/g
same,Recovery rate in blood relative to the injected peptide amount,[1],below 1%
same,AUC(0-inf),"in vivo [2]; female, NMRI, 5 mg/kg",160 ng·h/mL
same,Cmax,"in vivo [2]; female, NMRI, 5 mg/kg",200 ng/mL
same,MRT,"in vivo [2]; female, NMRI, 5 mg/kg",54.9 min
same,c0 (initial concentration at time point 0 min),"in vivo [2]; female, NMRI, 5 mg/kg",0.22 µg/mL
same,clearance,"in vivo [2]; female, NMRI, 5 mg/kg",15.1 mL/min
same,half-life,"in vivo [2]; female, NMRI, 5 mg/kg",33.8 min
same,C0,"in vivo [2]; female, NMRI, 5 mg/kg",200 ng/mL
same,AUC(0-inf),"in vivo [2]; female, NMRI, 20 mg/kg",1200 ng·h/mL
same,Cmax,"in vivo [2]; female, NMRI, 20 mg/kg",3600 ng/mL
same,MRT,"in vivo [2]; female, NMRI, 20 mg/kg",21 min
same,clearance,"in vivo [2]; female, NMRI, 20 mg/kg",8.4 mL/min
same,half-life,"in vivo [2]; female, NMRI, 20 mg/kg",16.9 min
same,Time within which peptide is cleared,in vivo [2],~ 90 min
same,AUMC0 → ∞,in vivo [2]; 5 mg/kg,1512 μg^*min^2*mL^−^1
same,Detection in plasma,in vivo [2]; 5 mg/kg,still detected
same,Volume of distribution,in vivo [2]; 5 mg/kg,659 mL
same,k (elimination constant),in vivo [2]; 5 mg/kg,0.020 min^−^1
same,AUMC0 → ∞,in vivo [2]; 20 mg/kg,524 μg^*min^2*mL^−^1
same,Volume of distribution,in vivo [2]; 20 mg/kg,77 mL
same,c0 (initial concentration at time point 0 min),in vivo [2]; 20 mg/kg,7.8 µg/mL
same,k (elimination constant),in vivo [2]; 20 mg/kg,0.041 min^−^1
same,t1/2 (elimination half life time),in vivo [2]; 20 mg/kg,17 min
same,level at 5 min,in vivo [3],400 ng/mL
same,Time within which peptide is cleared,in vivo [3],~ 60 min
